Experiments:
[1] = test system: HepDES19 cells; conditions: read-out: HepDES19 CC50; 72 h, MTS; highest concentration tested 100 µM; mean ± SD
Method: HepDES19 cells were plated on 96-well tissue culture-treated plates (Greiner) at 1.0 × 10^4 cells per well and incubated for 48 h. Cells were treated with titrated concentrations of compound or 1% DMSO vehicle for 72 h, and cellular viability was measured by 3-(4,5-dimethylthiazol-2-yl)−5-(3-carboxymethoxyphenyl)−2-(4-sulfophenyl)−2H-tetrazolium (MTS) assays, as described previously ([20]). […] Three or more replicate assays were done on different days.

[2] = Solubility limit, turbidimetric assay; assay type: physicochemical; conditions: upper limit 200 µM
Method: Solubility limits were determined by a turbidimetric assay, as described ([27]), with the solubility limit being defined as the compound concentration where light scattering began to rise. Two or more replicate assays were performed for each compound at each pH on different days.

[3] = Microsome stability; assay type: in vitro ADME, human; conditions: human, microsomes
Method: Human liver microsomes (gender pooled, 50 individuals) were purchased from BioIVT and stored at −80°C until use. […] Reactions were initiated by addition of 1.2 mM NADPH. […] Microsomal proteins were pelleted at 4,000 × g and the supernatant was analyzed via LCMS/MS. […] The ln percent remaining values were plotted against time, the negative slope was taken (k), and compound half-life (t1/2) was determined using ln2/k. Intrinsic clearance (Clint [µL/min/mg]) was calculated by (V × ln2)/t1/2, where V is the incubation volume (µL) divided by the protein concentration in the reaction (mg) ([31]).

[4] = test system: MDCK-MDR1 cells; assay: MDCK-MDR1 permeability assay; assay type: in vitro ADME; conditions: MDCK-MDR1 cells, 10 µM compound, 2 h; actively effluxed if >2
Method: MDCK-MDR1 cells were seeded on 96-well, high protein binding immobilon-P membrane plates (Millipore Sigma) at 2.4 × 10^4 cells per well for 4 days. Media were then decanted, and the cells were equilibrated with Hanks balanced salt solution (HBSS) supplemented with 10 mM CaCl2 and 1 mM MgCl2 for 1 h. Compound (10 µM) was then added to the apical side to assess active transport and to the basolateral side to assess active efflux. The cells were incubated with compound for 2 h with shaking at 37°C. Samples (50 µL) were retrieved from the recipient wells and mixed with 150 µL acetonitrile (ACN) and internal standard (1:1 of 200 ng/mL chloridazon:enalapril). Samples were pelleted at 4,000 × g and the supernatant was analyzed by liquid-chromatography/tandem mass spectrometry (LCMS/MS) analyses. […]. Active efflux was determined by Papp B/A/Papp A/B.
Tight junction formation was assessed by lucifer yellow permeation immediately following sample retrieval. Briefly, lucifer yellow (10 µM) was added to the apical wells and HBSS was added to the basolateral wells for 1 h with shaking at 37°C, after which sample was collected from the basolateral side and read on a Biotek Synergy HTX multi-mode plate reader with 485/20 excitation and 520/20 emission filters defined by the Center Wavelength/band-pass values. The percent lucifer yellow fluorescence was determined by subtracting the HBSS relative fluorescent units (RFU) from the sample RFU and normalizing to the lucifer yellow positive control RFU. Lucifer yellow permeation was determined to be acceptable if ≤3%.

[5] = molecular target: T1, human ribonuclease H1 (huRNase H1) (Homo sapiens, UniProt O60930); assay: Human RNase H1 inhibition, fluorescent biochemical assay
T1 construct: made in house; host or cells: Escherichia coli
T1 sequence (O60930 1-286): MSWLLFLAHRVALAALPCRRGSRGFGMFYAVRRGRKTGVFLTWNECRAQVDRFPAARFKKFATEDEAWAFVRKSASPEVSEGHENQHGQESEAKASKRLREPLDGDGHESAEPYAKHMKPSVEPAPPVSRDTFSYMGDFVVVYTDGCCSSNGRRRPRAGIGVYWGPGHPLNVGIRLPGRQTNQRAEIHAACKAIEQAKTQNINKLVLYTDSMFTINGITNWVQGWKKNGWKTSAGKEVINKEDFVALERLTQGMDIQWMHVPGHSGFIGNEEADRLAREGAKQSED
Method: Recombinant human ribonuclease H1 (huRNase H1) was expressed in Escherichia coli and purified by nickel affinity chromatography, as described previously ([30]). […] The heteroduplex substrate was prepared, as described by Ponzar et al. ([30]). Reactions were initiated by the addition of MgCl2 (5 mM final) and were performed on a Biotek Synergy HTX multi-mode plate reader at 28°C.
Maximum rates of fluorescence increase were calculated using the Biotek Gen5 v3.15 software and percentage activity was determined for each compound concentration by subtracting rates from no enzyme reactions and normalizing to DMSO reactions. […] Reactions were performed at least three times on separate days.

[6] = test system: HBV replication (HBV plus-polarity DNA strand); assay: HBV replication inhibition, strand preferential qPCR in hepDES19 cells; assay type: cell-based, hepatitis B virus; conditions: for EC50: 72 h exposure, HBV plus-polarity strand suppression, highest concentration tested 100 µM, mean ± SD, read-out: HepDES19 EC50
Method: HBV replication inhibition was measured in hepDES19 cells following 72 h compound exposure without compound replenishment. EC50 values were determined by HBV plus-polarity strand suppression using a strand preferential qPCR assay, as described previously ([28]). Three or more replicate values were obtained on different days.

[7] = Parallel artificial membrane permeability assay (PAMPA); assay type: in vitro ADME; conditions: for Papp 4 (PAMPA): pH 7.4, replicate 4
Method: Compound Papp values were determined by normalizing the experimental compound absorbance to the compounds’ absorbances at equilibrium, membrane porosity, buffer volume, and time (s). Two or more replicate assays were obtained on separate days for each pH.

[8] = pH 5 (fed simulated intestinal fluid)
[9] = pH 6.5 (fasted simulated intestinal fluid)

SMILES | CC50 [1] [nM] | Average Sol (solubility limit) [2, 8] [µM] | Sol 1 (solubility limit) ([2]; pH 5, replicate 1) [µM] | Sol 2 (solubility limit) ([2]; pH 5, replicate 2) [µM] | Average Sol (solubility limit) [2, 9] [µM] | Sol 1 (solubility limit) ([2]; pH 6.5, replicate 1) [µM] | Sol 2 (solubility limit) ([2]; pH 6.5, replicate 2) [µM] | Average Sol (solubility limit) ([2]; pH 7.4 (DMEM-F12 with 10% FBS)) [µM] | Sol 1 (solubility limit) ([2]; pH 7.4, replicate 1) [µM] | Sol 2 (solubility limit) ([2]; pH 7.4, replicate 2) [µM] | HepDES19 SI (CC50/EC50) [6] | EC50 [6] [nM] | Avg Papp (PAMPA) ([7]; FeSSIF pH 5) [×10⁻⁶ cm/s] | Interpretation (PAMPA Papp) ([7]; FeSSIF pH 5) | Papp 1 (PAMPA) ([7]; FeSSIF pH 5, replicate 1) [×10⁻⁶ cm/s] | Papp 2 (PAMPA) ([7]; FeSSIF pH 5, replicate 2) [×10⁻⁶ cm/s] | Avg Papp (PAMPA) ([7]; pH 7.4) [×10⁻⁶ cm/s] | Interpretation (PAMPA Papp) ([7]; pH 7.4) | Papp 1 (PAMPA) ([7]; pH 7.4, replicate 1) [×10⁻⁶ cm/s] | Papp 2 (PAMPA) ([7]; pH 7.4, replicate 2) [×10⁻⁶ cm/s] | also measured
CC(=NOCc1ccc(C)cc1)c1c(C)cc(=O)n(O)c1O [Compound 1462] | 33100 ± 5240 | > 200 | > 200 | > 200 | > 200 | > 200 | > 200 | > 200 | > 200 | > 200 | 112 | 295 ± 122 | 10.1 | H (H: Papp > 1*10-6) | 14.7 | 5.56 | 1.44 | H (H: Papp > 1*10-6) | 0.513 | 0.971 | Clearance (intrinsic clearance, Clint) [3]: 34.8 µL/min/mg; Half-life [3]: >30 min; Efflux Ratio (Papp B-A/A-B) [4]: 1.31; Selectivity of HBV replication inhibition over huRNase H1 (huRNase H1 IC50 versus HBV EC50) [5]: at least 10 fold; Papp 3 (PAMPA) ([7]; pH 7.4, replicate 3): 2.84 ×10⁻⁶ cm/s
CC(=NOCc1ccc(F)cc1F)c1c(C)cc(=O)n(O)c1O [Compound 1464] | 63600 ± 27000 | > 200 | > 200 | > 200 | > 200 | > 200 | > 200 | > 200 | > 200 | > 200 | 281 | 188 ± 63 | 36.2 | H (H: Papp > 1*10-6) | 14.4 | 50.1 | 2.49 | H (H: Papp > 1*10-6) | 2.62 | 2.31 | Sol 3 (solubility limit) ([2]; pH 5, replicate 3): > 200 µM; Half-life [3]: >30 min; Efflux Ratio (Papp B-A/A-B) [4]: 1.04; Selectivity of HBV replication inhibition over huRNase H1 (huRNase H1 IC50 versus HBV EC50) [5]: at least 10 fold; Papp 3 (PAMPA) ([7]; FeSSIF pH 5, replicate 3): 44.2 ×10⁻⁶ cm/s; Papp 3 (PAMPA) ([7]; pH 7.4, replicate 3): 2.3 ×10⁻⁶ cm/s; Papp 4 (PAMPA) [7]: 2.73 ×10⁻⁶ cm/s
CC(=NOCc1ccc(Cl)cc1)c1c(C)cc(=O)n(O)c1O [Compound 1466] | 46600 ± 13600 | > 200 | > 200 | > 200 | > 200 | > 200 | > 200 | > 200 | > 200 | > 200 | 130 | 359 ± 240 | 20.4 | H (H: Papp > 1*10-6) | 23.2 | 17.6 | 1.69 | H (H: Papp > 1*10-6) | 0.299 | 2.48 | Half-life [3]: >30 min; Selectivity of HBV replication inhibition over huRNase H1 (huRNase H1 IC50 versus HBV EC50) [5]: at least 10 fold; Papp 3 (PAMPA) ([7]; pH 7.4, replicate 3): 2.29 ×10⁻⁶ cm/s
CC(=NOCc1cc(F)ccc1F)c1c(C)cc(=O)n(O)c1O [Compound 1810] | > 100000 | 167 | 100 | > 200 | 100 | 100 | 100 | 167 | > 200 | 100 | 54.0 | 1850 ± 758 | 20.7 | H (H: Papp > 1*10-6) | 17.2 | 24.2 | 3.23 | H (H: Papp > 1*10-6) | 1.13 | 2.26 | Sol 3 (solubility limit) ([2]; pH 5, replicate 3): > 200 µM; Sol 3 (solubility limit) ([2]; pH 7.4, replicate 3): > 200 µM; IC50 ([5]; recombinant huRNase H1, RNA:DNA heteroduplex substrate): 820 nM; Papp 3 (PAMPA) ([7]; pH 7.4, replicate 3): 7.59 ×10⁻⁶ cm/s; Papp 4 (PAMPA) [7]: 1.29 ×10⁻⁶ cm/s; Papp 5 (PAMPA) ([7]; pH 7.4, replicate 5): 3.89 ×10⁻⁶ cm/s

From paper PMC11784145, “Efficacy and in vitro pharmacological assessment of novel N-hydroxypyridinediones as hepatitis B virus ribonuclease H inhibitors” (Antimicrobial Agents and Chemotherapy, 2024)
